Entries after “also recorded” stand apart in the source; their conditions may differ. Like-named read-outs stand apart in the source and are kept apart here.
Tests used:
[1] = tested on: patients with septic shock; assay: Pharmacometabolomic analysis of the RACE trial: mortality after L-carnitine stratified by pre-treatment serum acetylcarnitine; assay type: in vivo, human; details: for 90-day mortality: high (≥36 μM) pretreatment acetylcarnitine, placebo 100%; for hazard ratio (Mantel-Haenszel) / Kaplan-Meier curve, mortality benefit: 18 g vs placebo
Source text: Patient selection: Detailed inclusion and exclusion criteria have been previously reported (see, e.g., Jones (2018) “Effect of Levocarnitine vs Placebo as an Adjunctive Treatment for Septic Shock: The Rapid Administration of Carnitine in Sepsis (RACE) Randomized Clinical Trial” JAMA Netw Open 1: e186076, incorporated herein by reference). Briefly, patients presenting with suspected or confirmed infection and meeting consensus criteria for septic shock including administration of continuous vasopressors despite adequate fluid resuscitation, an elevated lactate>2 mmol/L, and a SOFA score of at least 5 were eligible for inclusion. All patients enrolled in the clinical trial were included in the present analysis with the exception of two patients who withdrew consent following randomization and 12 that lacked a T0 sample (FIG. 6).
Blood sampling. Following consent but prior to initiation of therapy, whole blood was drawn into serum separator tubes (SST; Vacutainer, Becton Dickinson, Franklin Lakes, NJ) and was allowed to clot for at least 30 minutes at room temperature. A portion of whole blood was aliquoted, while the remainder was centrifuged to yield serum. All samples were then frozen at −80° C. within 60 minutes of the initial sample acquisition. This approach has been previously utilized to yield samples appropriate for metabolomics analyses (see, e.g., Puskarich (2015) “Pharmacometabolomics of L-carnitine treatment response phenotypes in patients with septic shock” Ann Am Thorac Soc 12: 46-56, incorporated herein by reference). At the completion of the clinical trial, serum samples were shipped on dry ice to the University of Michigan for assay.
Measurement of Acylcarnitines: Analysis was performed consistent with prior methods (see, e.g., Puskarich (2018) “Septic Shock Nonsurvivors Have Persistently Elevated Acylcarnitines Following Carnitine Supplementation” Shock 49: 412-419, incorporated herein by reference). Briefly, at the time of analysis, serum samples were thawed on ice and extraction solvent was prepared consisting of a 1:1:1 mixture of methanol:acetonitrile:acetone plus a 1:200 dilution of a stock mixture of stable-isotope labeled acylcarnitine standards dissolved according to manufacturer instructions (NSK-B, Cambridge Isotope Laboratories). Acylcarnitine species were then analyzed without derivatization by RPLC-MS/MS using an Agilent 1200 LC coupled to an Agilent 6410 tandem quadrupole (Santa Clara, CA). A pooled sample generated by combining a small volume of all study samples was injected every 10th run and was used for intra-batch and inter-batch drift correction as described below. Absolute quantitation by isotope dilution mass spectrometry was performed for acylcarnitine species with exact-matching stable isotope internal standards (L-carnitine, C2, C3, C4, C5, C8, C14, C16) by multiplying the ratio of the unlabeled peak area/labeled peak area by the known concentration of acylcarnitine in the extraction solvent, then adjusting for dilution of the original serum sample. Other acylcarnitine species were limited to relative quantification by peak area.
By 90 days, 90% of the deaths occurred and the interaction term between L-carnitine treatment and mortality flattened (FIG. 7). Based on this analysis, 90-day mortality was chosen as the primary clinical outcome.
Statistical analysis: For logistic regression modeling, treatment assignment was scaled from 0 (placebo) to 1 (18 g L-carnitine) and age and SOFA score were z-scale normalized. Two main models were developed for each metabolite. The base model was described by log it(p)=B0+BD*Dose+BM*Metabolitei, where p is the probability of mortality in 90 days. The treatment interaction was modeled with: log it(p)=B0+(BD*Dose)+(BM*Metabolitei)+(BMD*Metabolitei)*Dose […]

[2] = tested on: patients with septic shock; details: cited from earlier work; for absolute mortality reduction at 28 days compared to saline placebo: 18 g dose, non-significant

C[N+](C)(C)C[C@H](O)CC(=O)[O-] [L-carnitine]
predicted probability of 90-day mortality (interaction logistic regression model) ([1]; as baseline acetylcarnitine concentration increases, dose 0, 6, 12, 18 g): declines with increasing L-carnitine dose
90-day mortality ([1]; L-carnitine 18 g, p=0.002): 50%
90-day mortality ([1]; L-carnitine any dose, p=0.02): 69%
proportion of 90-day non-survivors by dose received ([1]; low baseline acetylcarnitine tertile (normalized [−2.21, −0.508], n=79), placebo, 6, 12, 18 g, Fisher's exact test p=0.81): not associated with dose received; also recorded: not different between placebo or L-carnitine doses
treatment benefit (90-day mortality) ([1]; patients with acetylcarnitine less than 36 μM): no treatment benefit
treatment / mortality benefit ([1]; patients with acetylcarnitine ≥26 μM, L-carnitine 18 g, additional analysis (trend)): received a treatment benefit; also recorded: derived a mortality benefit
hazard ratio (Mantel-Haenszel) ([1]; scenario 1: no acetylcarnitine threshold): not significant
Kaplan-Meier curve, mortality benefit ([1]; scenario 1: no acetylcarnitine threshold, n=170, p=0.28): no mortality benefit
hazard ratio (Mantel-Haenszel) ([1]; scenario 2: acetylcarnitine (C2) threshold ≥26 μM): improved but is not significant
Kaplan-Meier curve, mortality benefit ([1]; scenario 2: acetylcarnitine (C2) threshold ≥26 μM, 52 patients, p=0.14): no mortality benefit
hazard ratio (Mantel-Haenszel) ([1]; scenario 3: acetylcarnitine (C2) threshold ≥30 μM): significant and favors L-carnitine (18 g)
Kaplan-Meier curve, mortality benefit ([1]; scenario 3: acetylcarnitine (C2) threshold ≥30 μM, 42 patients, p=0.01): mortality benefit
hazard ratio (Mantel-Haenszel) ([1]; scenario 4: acetylcarnitine (C2) threshold ≥36 μM): significant
Kaplan-Meier curve, mortality benefit ([1]; scenario 4: acetylcarnitine (C2) threshold ≥36 μM, 34 patients, p=0.004): mortality benefit
reduction in sequential organ failure assessment (SOFA) score at 48 hours ([2]; 6, 12 or 18 g): none of the tested L-carnitine doses produced a significant reduction
absolute mortality reduction at 28 days compared to saline placebo ([2]; intention to treat analysis): 3%
absolute mortality reduction at 28 days compared to saline placebo ([2]; per protocol analysis): 6%

Source: patent publication US12478603B2, “Serum metabolites as biomarkers for carnitine treatment of sepsis” (priority 2020, dated 2025)
